Measured values published in US7785567B2, “Growth hormone-releasing peptides in the treatment or prevention of atherosclerosis and hypercholesterolemia” (Valorisation-Recherche, Société en Commandite, priority 2002, dated 2010).
Where a SMILES comes first, the peptide text is derived from it. Primed or numbered codes have the meaning given here. Where no end group is shown, it is not given here. [ ]: non-standard residue; d: D form. dTrp(2-Me) = Cc1[nH]c2ccccc2c1C[C@@H](N)C(=O)O; Haic′ = not defined here

Assays:
ApoE-null mice [1] = assay: Fatty streak lesion area in aortas, en face oil red-O staining, 12 weeks treatment (Example 1); assay type: in vivo, mouse; conditions: HFHC diet, HEX 100 μg/kg per day or EP80317 300 μg/kg per day s.c. for 12 weeks from 6 weeks old, vs 0.9% NaCl
Procedure: GHRPs prevent fatty streak formation in ApoE deficient mice fed a HFHC diet for 12 weeks (from 6 weeks old). Effects of HEX (100 μg/kg per day) and of EP80317 (300 μg/kg per day), administered subcutaneously for 12 weeks (from 6 weeks old).
To determine whether GHRPs reduce atherosclerosis development, we have used the ApoE deficient mice strain and their C57BL/6 control littermates to assess the effects of prolonged (12 weeks) GHRPs treatment on fatty streak formation in mice fed a an enriched lipid diet. The surface area of oil red-O staining aortas of mice has been used as an index of plaque development and changes in the plasma levels of lipids as an index of hypolipemic effect. […]
(§1) The animals were housed in cages (less than 5 per cage) and fed a normal chow diet and water ad libitum. […] Four days before sacrifice, 6 mice from Groups 1 to 3 were injected i.p. with oxLDL (minimally oxidized, 3-6 mmol/mg protein, as determined by Thiobarbituric Acid Reactive Substances (TBARS) assay). […] The entire aorta from the heart, extending 5-10 mm after bifurcation of the iliac arteries and including the subclavian right and left common carotid arteries, was removed, dissected, and evaluated for lesion development by en face oil red-O staining and morphometry of scanned images using the software Scion Image (Scion Corp., Fredrick, Md.). […]

ApoE-null mice [2] = assay: Plasma lipid analysis (enzymatic kits) after 12 weeks treatment; assay type: in vivo, mouse; conditions: HFHC diet; for Increase in HDL cholesterol compared to controls: HEX 100 μg/kg or EP80317 300 μg/kg per day for 12 weeks, tended to be increased
Procedure: A: Effects of 12 weeks treatment (from 6 weeks old) with 0.9% NaCl (open bar), HEX, 100 μg/kg per day (solid bar) or EP80317 300 μg/kg per day (cross-hatched bar) on total plasma cholesterol in mice fed a HFHC or a normal diet.
The animals were housed in cages (less than 5 per cage) and fed a normal chow diet and water ad libitum. At 6 weeks of age, male C57BL/6, CD36 and ApoE-null mice were assigned to 1 of 3 groups (n=12 mice per group): Group 1 received daily injections of 0.9% NaCl (1 μL/g); Group 2, HEX (100 μg/kg, 1 μL/g), and Group 3, EP80317 (300 μg/kg, 1 μL/g). All three groups of mice were fed a HFHC diet (purchased from Research Diet Inc. (D.12108)) from 6 weeks of age. Daily s.c. treatment with HEX, EP80317 or vehicle was begun at 6 weeks old and continued for 12 weeks. Four days before sacrifice, 6 mice from Groups 1 to 3 were injected i.p. with oxLDL (minimally oxidized, 3-6 mmol/mg protein, as determined by Thiobarbituric Acid Reactive Substances (TBARS) assay). At 18 weeks old, mice were fasted overnight, anaesthetised with ketamine-xylazine (90:10 mg/kg) two hours after the s.c. administration of the morning dose of the drug under study. Blood (1 mL) was taken from the heart and put into EDTA pre-coated microcontainers (BD, Franklin Lakes, N.J., USA). Mice were killed, the hearts were perfused with 20 mL 0.9% NaCl. The peritoneal cavity was washed with 3 mL of heparinised saline (10 units/mL) in mice injected i.p. with oxLDL. A hemacytometer and stained cytospin preparation (Diff Quick stain, Dade Diagnostics of P.R. Inc., Aguada, PR) were used to determine the total and differential leukocyte numbers, respectively, for the peritoneal cavity lavage fluid. The entire aorta from the heart, extending 5-10 mm after bifurcation of the iliac arteries and including the subclavian right and left common carotid arteries, was removed, dissected, and evaluated for lesion development by en face oil red-O staining and morphometry of scanned images using the software Scion Image (Scion Corp., Fredrick, Md.). The animal study protocol was reviewed and approved by the institutional Animal Ethics Committee of the Université de Montréal and conducted in accordance with the Canadian Council on Animal Care guidelines for use of experimental animals.
Total plasma cholesterol, triacylglycerol and HDL cholesterol were determined using enzymatic kits (Sigma Chemicals). Appropriate standards and controls were included in each assay.

CD36 = assay: Western blot of oxLDL-elicited peritoneal macrophages from treated ApoE-null mice; assay type: in vivo, mouse; conditions: HFHC diet, HEX 100 μg/kg or EP80317 300 μg/kg per day, 12 weeks, normalised to β-actin, vehicle set at 100%
From the text: GHRPs modulate CD36 and ABCA1 protein levels in peritoneal macrophages from ApoE-null mice fed a HFHC diet for 12 weeks. […] Relative protein levels for A, CD36 and B, ABCA1 are normalised to β-actin and expressed as % of change compared to vehicle (0.9% NaCl)-treated controls set at 100%. Data represent the mean of two independent experiments.

[3] = system: human monocytic THP-1 cells; assay: Lipid accumulation in PMA-differentiated THP-1 macrophages (Oil Red O extraction, 510 nm); assay type: cell-based; conditions: 10 μM for 24 hrs
Procedure: A: GHRPs reduce lipid accumulation in differentiated human macrophages. To induce lipid accumulation, human monocytic THP-1 cells were differentiated to macrophages with 5 ng/mL PMA for 48 hrs and then treated as indicated for 24 hrs with 10 μM HEX or EP80317 in the presence of phorbol myristate acetate (PMA). Non-differentiated cells (no PMA) were also analysed. Lipid accumulation was quantified by photometry at 510 nm following extraction of Oil Red O from stained cells. Lipid staining was reduced by 35% and 28% in macrophages treated with HEX and EP80317, respectively, compared to untreated cells.

ApoE-null mice [4] = assay: Fatty streak lesion area in aortas, treatment begun after start of HFHC diet (Example 2); assay type: in vivo, mouse; conditions: HFHC diet from 6 weeks
Procedure: The effects of EP80317 (300 μg/kg per day) administered subcutaneously for 8 weeks (from 10 to 18 weeks of age), 6 weeks (from 12 to 18 weeks of age) and 4 weeks (from 14 to 18 weeks of age) were documented, as well as the effect of hexarelin (100 μg/kg per day) given for 4 weeks (from 14 to 18 weeks of age).
To determine whether GHRPs are able to delay the development or to modulate the regression of fatty streaks, we have used the ApoE-deficient mice to assess the effect of the duration of the treatment with GHRPs on the progression of fatty streaks after the initiation of atherosclerotic lesions induced by a HFHC diet starting at 6 weeks of age.
Male ApoE-null mice (n=35) were housed in cages (less than 5 per cage). After weaning until 4 weeks of age, the mice were fed a normal chow diet and water ad libitum. Starting at 6 weeks of age, the mice were fed a HFHC diet (purchased from Research Diet Inc. (D.12108)). The animals were segregated in 3 groups. • Group 1 (n=10) was subdivided into 2 subgroups, receiving, from 10 to 18 weeks of age (i.e. for 8 weeks), daily injections of EP80317 (300 μg/kg) (n=5) or 0.9% NaCl (n=5). • Group 2 (n=10) was subdivided into 2 subgroups receiving, from 12 to 18 weeks of age (i.e. for 6 weeks), daily injections of EP80317 (300 μg/kg/per day) (n=5) or 0.9% NaCl (n=5). • Group 3 (n=15) was subdivided into 3 subgroups, receiving, from 14 to 18 weeks of age (i.e. for 4 weeks), EP80317 (300 μg/kg/per day) (n=5), or hexarelin (100 μg/kg per day) (n=5) or 0.9% NaCl (n=5).
Mice were euthanised at 18 weeks of age. The entire aortas from the heart extending 5-10 mm after bifurcation of the iliac arteries and including the subclavian right and left common carotids were removed, dissected and evaluated for lesion development by en face oil red-O staining and morphometry of scanned images using the software Scion image (Scion Corp., Frederick, Md.).

CD36-null mice = assay: oxLDL-induced accumulation of macrophages in the peritoneal cavity; assay type: in vivo, mouse; conditions: HFHC diet, EP80317 300 μg/kg per day, 12 weeks
Procedure: (§2) A: Effects of 12 weeks treatment (from 6 weeks old) with 0.9% NaCl (open bar), HEX, 100 μg/kg per day (solid bar) or EP80317, 300 μg/kg per day (cross-hatched bar) on oxLDL (250 μg i.p., <6 nmol MDA/mg lipoprotein)-induced accumulation of macrophages in the peritoneal cavity in wild type C57BL/6 mice and CD36-null mice fed a HFHC diet. Peritoneal macrophage accumulation in wild type mice tended to be reduced by 37%.
as §1, with “libitum. At 6 weeks of age, male C57BL/6, CD36 and ApoE-null mice were assigned to 1 of 3 groups (n=12 mice per group): Group 1 received daily injections of 0.9% NaCl (1 μL/g); Group 2, HEX (100 μg/kg, 1 μL/g), and Group 3, EP80317 (300 μg/kg, 1 μL/g).” for “libitum.”

wild type C57BL/6 mice = assay: as above; assay type: in vivo, mouse; conditions: HFHC diet, EP80317 300 μg/kg per day, 12 weeks, oxLDL 250 μg i.p.
Procedure: as §2
as §1, with “libitum. At 6 weeks of age, male C57BL/6, CD36 and ApoE-null mice were assigned to 1 of 3 groups (n=12 mice per group): Group 1 received daily injections of 0.9% NaCl (1 μL/g); Group 2, HEX (100 μg/kg, 1 μL/g), and Group 3, EP80317 (300 μg/kg, 1 μL/g).” for “libitum.”

ApoE-null mice [5] = assay: as above; assay type: in vivo, mouse; conditions: normal chow diet, EP80317 300 μg/kg per day, 12 weeks
Procedure: B: Effects of 12 weeks treatment (from 6 weeks old) with 0.9% NaCl (open bar), HEX, 100 μg/kg per day (solid bar) or EP80317, 300 μg/kg per day (cross-hatched bar) on oxLDL-induced accumulation of macrophages in the peritoneal cavity in ApoE-null mice fed either a HFHC or a normal diet. Peritoneal macrophage accumulation was reduced by 39% in mice fed a normal diet.
as §1, with “libitum. At 6 weeks of age, male C57BL/6, CD36 and ApoE-null mice were assigned to 1 of 3 groups (n=12 mice per group): Group 1 received daily injections of 0.9% NaCl (1 μL/g); Group 2, HEX (100 μg/kg, 1 μL/g), and Group 3, EP80317 (300 μg/kg, 1 μL/g). All three groups of mice were fed a HFHC diet (purchased from Research Diet Inc. (D.12108)) from 6 weeks of age.” for “libitum.”

[6] = system: peritoneal macrophages isolated from ApoE-null mice; assay: Lipid accumulation in peritoneal macrophages isolated from treated ApoE-null mice (Oil Red O extraction); assay type: in vivo, mouse; conditions: HFHC diet from 13 to 18 weeks old, EP80317 300 μg/kg s.c. from 13 to 18 weeks old, vs not treated
Procedure: B: GHRPs reduced lipid accumulation in peritoneal macrophages isolated from ApoE-null mice fed a HFHC diet from 13 to 18 weeks old. EP80317 (300 μg/kg) s.c. has been administered from 13 to 18 weeks old. Lipid staining (assessed by Oil Red O extraction) was reduced by 57% (compared to peritoneal macrophages isolated from ApoE-null mice fed a HFHC diet from 13 weeks old, but not treated with EP80317).

[7] = cited from earlier work
[8] = treatment for 4 weeks (14 to 18 weeks of age), EP80317 300 μg/kg or hexarelin 100 μg/kg per day, not significant
[9] = EP80317 300 μg/kg daily for 12 weeks from 6 weeks old

Compound	Reduction of lesion area (% of total aorta area) compared to controls (ApoE-null mice [1]) [%]	Increase in HDL cholesterol compared to controls (ApoE-null mice [2]) [%]	CD36 protein expression in peritoneal macrophages, % of controls (CD36)	Reduction of lipid staining compared to untreated cells [3] [%]	Reduction of lesion area (% total aorta area) compared to controls (ApoE-null mice [4]; [8]) [%]	Decrease in non-HDL plasma cholesterol compared to controls (ApoE-null mice [2]; [9]) [%]	Decrease in total plasma cholesterol compared to controls (ApoE-null mice [2]; [9]) [%]	oxLDL-induced peritoneal macrophage accumulation (CD36-null mice)	Reduction of oxLDL-induced peritoneal macrophage accumulation (wild type C57BL/6 mice) [%]	Reduction of oxLDL-induced peritoneal macrophage accumulation (ApoE-null mice [5]) [%]	Reduction of lipid staining in peritoneal macrophages (Oil Red O extraction) [6] [%]	Reduction of lesion area (% total aorta area) compared to controls (ApoE-null mice [4]; treatment for 6 weeks (12 to 18 weeks of age), EP80317 300 μg/kg per day s.c.) [%]	Reduction of lesion area (% total aorta area) compared to controls (ApoE-null mice [4]; treatment for 8 weeks (10 to 18 weeks of age), EP80317 300 μg/kg per day s.c.) [%]	GH-secreting activity in vivo [7]
Cc1[nH]c2ccccc2c1C[C@@H](NC(=O)[C@@H](N)Cc1cnc[nH]1)C(=O)N[C@@H](C)C(=O)N[C@@H](Cc1c[nH]c2ccccc12)C(=O)N[C@H](Cc1ccccc1)C(=O)N[C@@H](CCCCN)C(N)=O [HEX, His-(D) -(Me)Trp-Ala-Trp-(D)-Phe-Lys-NH2, reference compound] (H-H[dTrp(2-Me)]AW[dF]K-NH2)	28	65	57 % of controls	35	8									
Haic-(D) -(Me)Trp-(D)-Lys-Trp-(D)-Phe-Lys-NH2 ([Haic′]W[dK]W[dF]K-NH2; not fully specified (residue 2)) [EP80317]	51	73	27 % of controls	28	36	31	30	did not modulate macrophage accumulation	37	39	57	31.3	39.2	devoid of GH-secreting activity in vivo
